Source: patent US8697081B2, “Method of modulating neovascularization” (The Regents of the University of Michigan, priority 2008, dated 2014)

Legend:
[1] = test system: human endothelial cells; assay: Tubulogenesis (patent tubules) in 3-D fibrin gel; format: cell-based; conditions: 50 μM blebbistatin
Protocol: Endothelial cells were isolated from human umbilical cord veins by collagenase digestion and cultured in Medium 199 (Gibco) containing 20% human serum, 50 μg/ml endothelial cell growth supplement (BD Biosciences), 100 U/ml penicillin, and 100 μg/ml streptomycin (Hiraoka et al. 1998. Cell, 95(3): 365-377). […]
(Chernousov et al. 1991. J. Biol. Chem., 266(17): 10851-10858; Tomasini-Johansson et al. 2001. J. Biol. Chem., 276(26): 23430-23439; Mao and Schwarzbauer. 2005. Matrix Biol., 24(6): 389-399; and Tomasini-Johansson et al. 2006. Matrix Biol., 25(5): 282-293). […] Cell number in 3-D cultures was determined by hemacytometry after dissolving gels with 2 mg/ml bacterial collagenase (Worthington) while the number of patent tubules was determined in randomly selected cross-sections. Fn matrix assembly and cell morphology were monitored by confocal laser microscopy. To examine cell migration, endothelial cells were embedded in a 100 μl fibrin gel for 2 hours, then placed within a 500 μl gel for 8 days in the presence of Del29, FUD, control IgG, or L8, after which migration from the inner gel was assessed.

[2] = test system: Human umbilical vein endothelial cells; assay: Cytoskeletal organization (F-actin, β-tubulin, vimentin) and isometric tension/contractile force; format: cell-based; conditions: 3-D culture, VEGF/HGF-stimulated, blebbistatin or nocodazole
Protocol: This process can be recapitulated in vitro by embedding serum-supplemented human endothelial cells within a 3-D fibrin gel in the presence of the pro-angiogenic factors, VEGF and HGF. Human umbilical vein endothelial cells were isolated from umbilical cords by perfusion of the umbilical vein with type 3 collagenase (Worthington, Lakewood, N.J.) and cultured in Medium-199 (Invitrogen, Carlsbad, Calif.) with 20% human serum and 50 μg/ml endothelial cell growth supplement (ECGS; BD Biosciences, Franklin Lakes, N.J.). For 3-D culture, endothelial cells were suspended in a solution of thrombin and aprotinin (Sigma, St. Louis, Mo.) and mixed 1:1 with a solution of 6 mg/ml fibrinogen (Calbiochem, Gibbstown, N.J.). Vasculogenesis was triggered by treatment with 100 ng/ml VEGF, 50 ng/ml HGF (Genentech, San Francisco, Calif.).
VEGF/HGF-stimulated endothelial cells were treated with either (a) blebbistatin to inhibit myosin ATPase function, or (b) nocodazole to prevent microtubule assembly under 3-D culture conditions (Salpingidou et al., 2007. J. Cell Biol., 178: 897-904; Zhou et al., supra).

Cc1ccc2c(c1)C(=O)C1(O)CCN(c3ccccc3)C1=N2 (centres unmarked) [blebbistatin]
endothelial cell tubulogenesis [1]: blocked completely | contractile force exerted on the 3-D ECM [2]: impairing
